# Laboratory results from patent publication US11274099B2 (Superb Wisdom Limited, priority 2017, dated 2022).
# Test: Pharmacokinetic analysis in male SD rats after IV bolus, plasma by LC-MS/MS
# Type: in vivo
# Details: rat, IV bolus 0.04 mg/kg; for Cmax / half-life: 3 rats per group; for half-life: read-out: T1/2, ± SD (converted); for MRT inf: read-out: MRT0-Inf (Mean Residence Time); for MRT last: read-out: MRT0-last (Mean Residence Time); for Vd: read-out: Vdss (apparent volume of distribution at equilibrium); for AUC(0-t): time zero to last measurable concentration; for AUC(0-inf): zero up to ∞
# Experimental: Each of the tested compounds was administered as an IV bolus (3 rats per group) at a dose 0.04 mg/kg. Rats were fasted at least 12 hours prior to administration of test compound. […] Blood samples were processed for plasma and analyzed by LC-MS/MS for the following pharmacokinetic parameters: Cmax, T1/2, CL, Vdss, AUC0-last, AUC0-∞, MRT0-last, and MRT0-∞.
Cmax [ng/mL],half-life [h],MRT inf [h],MRT last [h],Vd [L/kg],AUC(0-t) [ng·h/mL],AUC(0-inf) [ng·h/mL],SMILES
40.1 ± 8.82,2.41 ± 1.71,2.43 ± 0.735,1.66 ± 0.151,3.23 ± 0.581,54.8 ± 6.02,59.4 ± 8.16,"[2H]C([2H])([2H])C([2H])([2H])OCc1nc2c(N)nc3ccccc3c2n1CC(C)(C)O [Compound 107, 1-(4-amino-2-((ethoxy-d5)methyl)-1H-imidazo[4,5-c]quinolin-1-yl)-2-methylpropan-2-ol]"
40.3 ± 10.7,1.85 ± 1.05,2.1 ± 0.663,1.5 ± 0.328,2.62 ± 0.516,56.2 ± 6.51,60.4 ± 7.71,"[2H]C([2H])([2H])C(O)(Cn1c(COCC)nc2c(N)nc3ccccc3c21)C([2H])([2H])[2H] [Compound 104, 2-((4-amino-2-(ethoxymethyl)-1H-imidazo[4,5-c]quinolin-1-yl)methyl)propan-1,1,1,3,3,3-d6-2-ol]"
44.5 ± 14.2,1.97 ± 1.76,1.79 ± 0.884,1.26,2.61 ± 0.732,49.3 ± 8.99,53 ± 11.2,"[2H]C([2H])([2H])C(O)(C([2H])([2H])[2H])C([2H])([2H])n1c(COCC)nc2c(N)nc3ccccc3c21 [Compound 113, 1-(4-amino-2-(ethoxymethyl)-1H-imidazo[4,5-c]quinolin-1-yl)-2-(methyl-d3)propan-1,1,3,3,3-d5-2-ol]"
43.8 ± 10.9,1.03 ± 1.72,1.37 ± 0.139,1.09 ± 0.081,2.46 ± 0.361,42.1 ± 6.04,45.9 ± 6.67,"CCOCc1nc2c(N)nc3ccccc3c2n1CC(C)(C)O [Resiquimod, 1-(4-Amino-2-(ethoxymethyl)-1H-imidazo[4,5-c]quinolin-1-yl)-2-methylpropan-2-ol, reference compound]"
